The target of assay [1] is T1, Mucosa-associated lymphoid tissue lymphoma translocation protein 1 (Homo sapiens) (UniProt Q9UDY8).
T1 sequence (whole entry): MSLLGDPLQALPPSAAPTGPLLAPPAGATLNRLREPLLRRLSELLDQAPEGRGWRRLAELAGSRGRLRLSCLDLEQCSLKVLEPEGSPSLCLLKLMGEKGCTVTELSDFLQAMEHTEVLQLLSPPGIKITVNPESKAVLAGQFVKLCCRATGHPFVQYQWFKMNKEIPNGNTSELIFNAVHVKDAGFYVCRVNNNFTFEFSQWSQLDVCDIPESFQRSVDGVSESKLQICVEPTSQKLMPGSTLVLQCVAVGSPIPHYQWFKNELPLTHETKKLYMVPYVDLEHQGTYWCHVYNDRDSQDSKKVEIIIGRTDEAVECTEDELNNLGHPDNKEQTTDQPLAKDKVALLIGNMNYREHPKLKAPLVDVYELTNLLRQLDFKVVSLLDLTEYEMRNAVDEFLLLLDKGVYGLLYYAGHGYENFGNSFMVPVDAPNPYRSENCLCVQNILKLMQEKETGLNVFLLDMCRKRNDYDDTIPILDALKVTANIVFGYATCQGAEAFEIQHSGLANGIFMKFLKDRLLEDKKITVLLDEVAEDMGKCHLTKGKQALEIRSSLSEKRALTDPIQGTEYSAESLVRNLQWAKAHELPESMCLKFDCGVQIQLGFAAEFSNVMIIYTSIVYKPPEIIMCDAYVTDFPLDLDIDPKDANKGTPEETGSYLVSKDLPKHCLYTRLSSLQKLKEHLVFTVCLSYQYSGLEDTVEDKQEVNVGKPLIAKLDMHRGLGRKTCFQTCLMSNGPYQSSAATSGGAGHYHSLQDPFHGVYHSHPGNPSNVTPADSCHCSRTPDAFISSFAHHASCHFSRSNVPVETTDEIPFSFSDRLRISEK
Put plainly: (§1) Inhibition of recombinant Malt1 (unknown origin) at 1 to 100 uM preincubated for 1 hr followed by (S)-1-((6-(4-(4-(5,5-Difluoro-3,7-bis(4-methoxyphenyl)-5H-4l4,5l4-dipyrrolo[1,2-c:20,10-f][1,3,2]diazaborinin-10-yl)butyl)-1H-1,2,3-triazol-1-yl)hexanoyl)-L-valyl-L-arginyl)-N-((S)-1-fluoro-6-guanidino-2-oxohexan-3-yl)pyrrolidine-2-carboxamide addition and incubated for 1 hr by SDS-PAGE based competitive activity-based protein profiling assay.

For assay [2], the target named is T2, Mucosa-associated lymphoid tissue lymphoma translocation protein 1 (Homo sapiens, UniProt Q9UDY8).
T2 sequence (Q9UDY8 whole entry): T1 sequence (whole entry)
Described as §1.

The target of assay [3] is T1, Mucosa-associated lymphoid tissue lymphoma translocation protein 1 (Homo sapiens). Put plainly: (§2) Inhibition of recombinant Malt1 (unknown origin) at 10 to 1000 uM preincubated for 1 hr followed by (S)-1-((6-(4-(4-(5,5-Difluoro-3,7-bis(4-methoxyphenyl)-5H-4l4,5l4-dipyrrolo[1,2-c:20,10-f][1,3,2]diazaborinin-10-yl)butyl)-1H-1,2,3-triazol-1-yl)hexanoyl)-L-valyl-L-arginyl)-N-((S)-1-fluoro-6-guanidino-2-oxohexan-3-yl)pyrrolidine-2-carboxamide addition and incubated for 1 hr by SDS-PAGE based competitive activity-based protein profiling assay.

The target in assay [4] is T2, Mucosa-associated lymphoid tissue lymphoma translocation protein 1. The assay is described as §2.
In assay [5] the target is T1, Mucosa-associated lymphoid tissue lymphoma translocation protein 1 (Homo sapiens). The assay can be described thus: Binding affinity to recombinant GST-Malt1 (325 to 760 residues) (unknown origin) assessed as protein labeling at 0.1 to 1 uM after 1 hr by SDS-PAGE based activity-based protein profiling assay.
Assay [6] shares this target. Put plainly: Binding affinity to Malt1 in phorbol 12-myristate 13-acetate/ionomycin stimulated human Jurkat T cells assessed as protein labeling at 1 uM after 50 mins by SDS-PAGE based activity-based protein profiling assay. It is filed as cell-based.
Assay [7] has the same target. Put plainly: Binding affinity to Malt1 in phorbol 12-myristate 13-acetate/ionomycin stimulated human Jurkat T cells assessed as protein labeling at 3 uM after 50 mins by SDS-PAGE based activity-based protein profiling assay. It is filed as cell-based.
For assay [8] the target is unchanged. The assay can be described thus: Binding affinity to Flag-tagged Malt1 (unknown origin) overexpressed in human Jurkat T cells assessed as protein labeling at 1 uM after 50 mins by Western blot analysis. It is filed as cell-based. Background: In western blotting, separated proteins are transferred to a membrane and probed.
The next assay concerns Jurkat. The assay can be described thus: Binding affinity to Malt1 C/A mutant (unknown origin) overexpressed in human Jurkat T cells assessed as protein labeling at 1 uM after 50 mins by Western blot analysis. It is filed as cell-based.
For assay [9], the target named is T1, Mucosa-associated lymphoid tissue lymphoma translocation protein 1 (Homo sapiens). The assay can be described thus: Binding affinity to recombinant GST-Malt1 (325 to 760 residues) (unknown origin) assessed as protein labeling at 0.05 to 0.5 uM after 1 hr by SDS-PAGE based activity-based protein profiling assay.
Assay [10] has the same target. The assay can be described thus: Binding affinity to recombinant GST-Malt1 (325 to 760 residues) (unknown origin) assessed as protein labeling at 1 uM after 1 hr by SDS-PAGE based activity-based protein profiling assay.
Assay [11] shares this target. The assay can be described thus: Binding affinity to Malt1 in phorbol 12-myristate 13-acetate/ionomycin stimulated human Jurkat T cells assessed as protein labeling at 1 to 3 uM after 50 mins by SDS-PAGE based activity-based protein profiling assay. It is filed as cell-based.

Structures are written as SMILES. Activity calls are given as the source filed them. No cut-off for these calls is given here.

For `COCCOc1nc(-c2ccc(Cl)c(Cl)c2)n(-c2ccc(NC(=O)CCl)cc2)n1`, in assay [1], the pIC50(app) stood at 5.11. Further, the IC50 (commonly the midpoint of a concentration-inhibition curve) in assay [2] amounted to 7.8 µM.

Consider `C=CC(=O)Nc1ccc(-n2nc(OCCOC)nc2-c2ccc(Cl)c(Cl)c2)cc1`, for which the pIC50(app) in assay [3] was 4.47. The IC50 in assay [4] was found to be 34 µM.

Turning to `COCCOc1nc(-c2cccc(OC)c2)n(-c2ccc(NC(=O)CCl)cc2)n1`, the pIC50(app) in [3] stood at 3.71. The IC50 in [4] worked out at 194 µM.

Take `COCCOc1nc(-c2ccc(Cl)cc2)n(-c2ccc(NC(=O)CCl)cc2)n1`: the pIC50(app) was determined as 5.81 in assay [3] and 5.52 in assay [1]. Further, the IC50 was 1.6 µM in assay [4] and 3 µM in assay [2].

As to `COCCOc1nc(-c2cccc(C)c2)n(-c2ccc(NC(=O)CCl)cc2)n1`, the pIC50(app) in assay [3] was found to be 3.56. Besides, in assay [4], the IC50 stood at 278 µM.

Regarding `COCCOc1nc(-c2cccc(C(F)(F)F)c2)n(-c2ccc(NC(=O)CCl)cc2)n1`, the pIC50(app) in assay [3] was found to be 4.03. In addition, the IC50 in assay [4] turned out to be 93 µM.

With `COCCOc1nc(-c2ccc(C)c(C)c2)n(-c2ccc(NC(=O)CCl)cc2)n1`, the pIC50(app) in assay [3] came out at 4.82. Moreover, the IC50 in [4] was determined as 15 µM.

Consider `COCCOc1nc(-c2ccc(F)c(F)c2)n(-c2ccc(NC(=O)CCl)cc2)n1`, for which the pIC50(app) in assay [3] was found to be 4.59. In [4], the IC50 was 26 µM.

In the case of `COCCOc1nc(-c2ccc(-c3ccccc3)cc2)n(-c2ccc(NC(=O)CCl)cc2)n1`, the pIC50(app) in assay [3] came to 4.66. For the same molecule, the IC50 in [4] was 22 µM.

For `COCCOc1nc(-c2ccc(C)cc2)n(-c2ccc(NC(=O)CCl)cc2)n1`, the results for the pIC50(app) in assay [3] and in [1] were 5.05 and 5.09, respectively. Further, the IC50 came out at 9 µM in assay [4] and 8.2 µM in [2].

`COCCOc1nc(-c2ccc(OC)cc2)n(-c2ccc(NC(=O)CCl)cc2)n1`: the pIC50(app) in assay [3] stood at 4.35. Moreover, the IC50 in assay [4] came out at 45 µM.

For the molecule `COc1ccc(C2=[N+]3C(=C(CCCCc4cn(CCCCCC(=O)N[C@H](C(=O)N[C@@H](CCCNC(=N)N)C(=O)N5CCC[C@H]5C(=O)N[C@@H](CCCNC(=N)N)C(=O)CF)C(C)C)nn4)c4ccc(-c5ccc(OC)cc5)n4[B-]3(F)F)C=C2)cc1`, the outcome in assay [5], in assay [7] and in assay [8] was Active. The result (in assay [6]; in the assay with Jurkat) was inactive.

Take `CN1\C(=C/C=C/C=C/C2=[N+](CCCCCC(=O)NCCOc3nc(-c4ccc(Cl)c(Cl)c4)n(-c4ccc(NC(=O)CCl)cc4)n3)c3ccccc3C2(C)C)C(C)(C)c2ccccc21`: the outcome in [9] and in assay [11] was inactive. For the same molecule, the result (in [10]; in [8]; with Jurkat) was Active.

As for `COCCOc1nc(-c2cccc(Br)c2)n(-c2ccc(NC(=O)CCl)cc2)n1`, the pIC50(app) in assay [3] was 4.78. For the same molecule, the IC50 in assay [4] was found to be 17 µM.

As to `COCCOc1nc(-c2cccc(F)c2)n(-c2ccc(NC(=O)CCl)cc2)n1`, the pIC50(app) in [3] is 4.05. Moreover, in assay [4], the IC50 was 88 µM.

Regarding `COCCOc1nc(-c2cccc(Cl)c2)n(-c2ccc(NC(=O)CCl)cc2)n1`, the pIC50(app) in assay [3] came out at 4.57. Also, the IC50 in assay [4] amounted to 26 µM.

For `COCCOc1nc(-c2ccc(C(F)(F)F)cc2)n(-c2ccc(NC(=O)CCl)cc2)n1`, the pIC50(app) in assay [3] was found to be 4.66. In addition, in [4], the IC50 was determined as 22 µM.

As for `CC1=CC(C)=[N+]2C1=Cc1ccc(CCC(=O)N[C@@H](CC(C)C)C(=O)N[C@@H](CCCNC(=N)N)C(=O)N[C@@H](CO)C(=O)N[C@@H](CCCNC(=N)N)C(=O)COC(=O)c3c(C)cccc3C)n1[B-]2(F)F`, the outcome in [10], in assay [6] and in assay [8] was Active. The result in the assay with Jurkat was inactive.

As for `COCCOc1nc(-c2ccc(F)cc2)n(-c2ccc(NC(=O)CCl)cc2)n1`, the values for the pIC50(app) in assay [3] and in [1] were 5.17 and 4.99, respectively. Moreover, the results for the IC50 in assay [4] and in assay [2] were 6.8 µM and 10 µM, respectively.

In the case of `COCCOc1nc(-c2ccc(Br)cc2)n(-c2ccc(NC(=O)CCl)cc2)n1`, the values for the pIC50(app) in [3] and in [1] were 5.82 and 5.68, respectively. Besides, the IC50 was determined as 1.5 µM in assay [4] and 2.1 µM in assay [2].

With `COCCOc1nc(-c2ccc(OC)c(OC)c2)n(-c2ccc(NC(=O)CCl)cc2)n1`, the pIC50(app) in assay [3] worked out at 4.92. Besides, the IC50 in assay [4] was determined as 12 µM.

For the molecule `COCCOc1nc(-c2ccccc2)n(-c2ccc(NC(=O)CCl)cc2)n1`, the pIC50(app) in [3] was 4.01. For the same molecule, in assay [4], the IC50 is 98 µM.

For `COCCOc1nc(-c2ccc3c(c2)OCO3)n(-c2ccc(NC(=O)CCl)cc2)n1`, in assay [3], the pIC50(app) was determined as 4.06. For the same molecule, in assay [4], the IC50 is 88 µM.

These data come from ChEMBL document CHEMBL3813635, “Development of new Malt1 inhibitors and probes” (Bioorg Med Chem, 2016).
